Results reported in ChEMBL document CHEMBL1125968, “5-HT2 antagonist activity of 3-aminomethyltetralones” (Bioorg Med Chem Lett, 1991).

Assays:
[1] = biological target: Serotonin 2 (5-HT2) receptor (Rattus norvegicus, UniProt P30994+P08909+P14842); assay: Tested for the binding affinity towards 5-HT2 receptor measured by [3H]ketanserin binding to frontal cerebral cortex membranes of rat; assay type: tissue-based, Membrane
Rattus norvegicus = species: Rattus norvegicus; assay: Tested for the antagonistic activity against serotonin-induced contractions in rat aorta ring strip of endothelium; assay type: functional, organism-based; conditions: read-out: pA2 (converted)

O=C(CCCN1CCN(CC2CC(=O)c3ccccc3C2)CC1)c1ccc(F)cc1 (stereo unspecified)
Log Ki [1]: -7.25

COc1ccccc1N1CCN(CC2CC(=O)c3ccccc3C2)CC1 (stereo unspecified)
Kb (Rattus norvegicus): 513 nM
Log Ki [1]: -6.48

O=C1CC(CN2CCC(C(=O)c3ccc(F)cc3)CC2)Cc2ccccc21 (stereo unspecified)
Kb (Rattus norvegicus): 13.8 nM

O=C(CCCN1CCN(CC2CC(=O)c3ccc(F)cc3C2)CC1)c1ccc(F)cc1 (stereo unspecified)
Kb (Rattus norvegicus): 56.2 nM
Log Ki [1]: -7.29
